pIC50: −log10 of the molar value. Where two headings read alike, the source gives them in different places.
Legend:
SHP2^E76A protein = SHP2^E76A protein (Homo sapiens (Human), UniProt Q06124, E76A); assay: SHP2 enzyme activity inhibition experiment; format: biochemical
Outline: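 Compounds tested at 10 concentrations in 3-fold serial dilution. IC50 from a four-parameter Hill-slope nonlinear fit of enzyme activity versus concentration.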

[1] = system: phosphorylation level of intracellular protein kinase (ERK) in MOLM13 cells; assay: Phosphorylated protein kinase (p-ERK) cell experiment (AlphaLISA); format: cell-based; conditions: Homo sapiens, MOLM-13, MOLM13 cells
Procedure: The inhibitory activities of the compounds on the phosphorylation level of intracellular protein kinase (ERK) were determined by AlphaLISA method.
Firstly, the cells were treated with the compounds. The compounds to be tested were subjected to 3-fold dilution with 100% DMSO, and a total of 9 different concentration gradients were set. MOLM13 cells were then seeded into 96-well plates at a density of 30,000 cells per well in a volume of 100 µL per well. […] of DMSO or the test compounds with different concentrations was then transferred into each well, setting two duplicates for each concentration, and the final concentration of DMSO was controlled at 0.5%.
Secondly, the cells were lysed. After 2 hours of cell treatment, the medium was removed, and the cells were washed 3 times with phosphate buffered saline. 50 µL of freshly prepared lysis buffer was added to each well, and the plates were shaken and kept at room temperature for 10 minutes.
Thirdly, the phosphorylated extracellular signal-regulated kinase (p-ERK) was detected by AlphaLISA@ SureFire® Ultra™ p-ERK 1/2 (Thr202/Tyr204) kit (Perkin Elmer, ALSU-PERK-A10K). 10 µL of the above lysate was transferred to a 384-well plate (Perkin Elmer, 6005350), and the phosphorylation level of the extracellular signal-regulated kinase of the sample was detected according to the product instructions. The signal was read using AlphaScreen detector on Spectra max i3 (Molecular Devices). The percentage of inhibition (%) was calculated by the following formula: Inhibition percentage(%)=(1−p-ERK signal of compound-treated cells/p-ERK signal of DMSO-treated cells)*100

MOLM-13 cells = assay: MOLM-13 cell proliferation experiment; format: cell-based
Procedure: After 3 days, 5 µL of CellTiter-Glo reagent (Promega, ZG7572) was added to each well, and the plates were kept at room temperature in the dark for 10 minutes. The […] was detected by Spectra max i3 (Molecular Devices). The relative growth rate of the treated cells was compared with that of DMSO control.

[2] = SHP2 enzyme activity, Tables 1.1 and 1.2, read-out: IC50
[3] = Table 4, read-out: SHP2 enzyme activity IC50
[4] = p-ERK, 2 hours of cell treatment, Tables 2.1 and 2.2, read-out: IC50
[5] = Homo sapiens, MOLM-13, 72 h, MOLM-13 cell proliferation, 3 days, Tables 3.1 and 3.2, read-out: IC50
[6] = Homo sapiens, MOLM-13, read-out: MOLM-13 cell proliferation IC50

Chain of SHP2^E76A protein (Q06124 whole entry E76A): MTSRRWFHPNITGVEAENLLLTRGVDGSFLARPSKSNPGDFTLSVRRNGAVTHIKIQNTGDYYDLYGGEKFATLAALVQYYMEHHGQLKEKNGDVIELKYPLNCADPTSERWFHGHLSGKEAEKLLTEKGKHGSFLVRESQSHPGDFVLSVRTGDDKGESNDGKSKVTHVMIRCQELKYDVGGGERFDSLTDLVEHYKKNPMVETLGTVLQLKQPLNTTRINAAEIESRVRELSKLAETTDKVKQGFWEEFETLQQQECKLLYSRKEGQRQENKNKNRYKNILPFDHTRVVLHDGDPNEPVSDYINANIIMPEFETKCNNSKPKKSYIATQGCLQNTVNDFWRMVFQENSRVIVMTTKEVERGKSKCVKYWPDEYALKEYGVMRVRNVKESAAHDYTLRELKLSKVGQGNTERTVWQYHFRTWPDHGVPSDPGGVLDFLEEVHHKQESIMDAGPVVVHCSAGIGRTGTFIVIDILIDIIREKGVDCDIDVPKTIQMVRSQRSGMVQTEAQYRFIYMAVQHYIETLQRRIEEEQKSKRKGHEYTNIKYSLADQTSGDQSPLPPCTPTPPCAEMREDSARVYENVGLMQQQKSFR

SMILES | pIC50 (SHP2^E76A protein; [2]) | pIC50 (SHP2^E76A protein; [3]) | pIC50 ([1]; Table 4, read-out: p-ERK IC50) | pIC50 [1, 4] | pIC50 (MOLM-13 cells; [5]) | pIC50 (MOLM-13 cells; [6]) | pIC50 (MOLM-13 cells; MOLM-13 cell proliferation, 3 days, Tables 3.1 and 3.2, read-out: IC50)
Nc1nccc(Sc2cnc(N3CCC4(CCC[C@H]4N)CC3)n3ccnc23)c1Cl [(R)-8-(8-((2-amino-3-chloropyridin-4-yl)thio)imidazo[1,2-c]pyrimidin-5-yl)-8-azaspiro[4.5]decan-1-amine] | > 7.00 | 7.70 | 6.39 | 6.00 to 7.00 | 6.00 to 7.00 | 6.57 | 
C[C@@H]1OCC2(CCN(c3ncc(Sc4cc(N)ncc4Cl)c4nccn34)CC2)[C@@H]1N [(3S,4S)-8-(8-((2-amino-5-chloro-pyridin-4-yl)thio)imidazo[1,2-c]pyrimidin-5-yl)-3-methyl-2-oxa-8-azaspiro[4.5]decan-4-amine] |  | 7.68 | 7.03 | > 7.00 |  | 6.74 | 
CC1C[C@@H](N)C2(CCN(c3ncc(Sc4cccc(Cl)c4Cl)c4nncn34)CC2)C1 (stereo partly drawn) [(1R)-8-(8-((2,3-dichlorophenyl)thio)-[1,2,4]triazolo[4,3-c]pyrimidin-5-yl)-3-methyl-8-azaspiro[4.5]decan-1-amine] | > 7.00 | 8.40 | 7.19 |  | > 7.00 | 7.23 | 
COc1nccc(Sc2cnc(N3CCC4(CCC[C@H]4N)CC3)n3ccnc23)c1Cl [(R)-8-(8-((3-chloro-2-methoxypyridin-4-yl)thio)imidazo[1,2-c]pyrimidin-5-yl)-8-azaspiro[4.5]decan-1-amine] | > 7.00 |  |  | 6.00 to 7.00 | 6.00 to 7.00 |  | 
C[C@@H]1OCC2(CCN(c3ncc(Sc4cccc(Cl)c4Cl)c4nncn34)CC2)[C@@H]1N | > 7.00 |  |  | 6.00 to 7.00 | 6.00 to 7.00 |  | 
N[C@@H]1CCCC12CCN(c1ncc(Sc3ccnc4ccccc34)c3nccn13)CC2 [(R)-8-(8-(quinolin-4-ylthio)imidazo[1,2-c]pyrimidin-5-yl)-8-azaspiro[4.5]decan-1-amine] | > 7.00 | 7.70 | 7.51 | 6.00 to 7.00 | > 7.00 | 7.00 | 
N[C@@H]1COCC12CCN(c1ncc(Sc3cccc(Cl)c3Cl)c3nncn13)CC2 [(S)-8-(8-((2,3-dichlorophenyl)thio)-[1,2,4]triazolo[4,3-c]pyrimidin-5-yl)-2-oxa-8-azaspiro[4.5]decan-4-amine] | > 7.00 | 7.70 | 6.77 | 6.00 to 7.00 | 6.00 to 7.00 | 6.05 | 
Cn1ccc2c(Sc3cnc(N4CCC5(CCC[C@H]5N)CC4)n4ccnc34)ccnc21 [(R)-8-(8-((1-methyl-1H-pyrrolo[2,3-b]pyridin-4-yl)thio)imidazo[1,2-c]pyrimidin-5-yl)-8-azaspiro[4.5]decan-1-amine] | > 7.00 |  |  | 6.00 to 7.00 | 6.00 to 7.00 |  | 
N[C@@H]1CCCC12CCN(c1ncc(Sc3ccncc3Cl)c3nccn13)CC2 [(R)-8-(8-((3-chloropyridin-4-yl)thio)imidazo[1,2-c]pyrimidin-5-yl)-8-azaspiro[4.5]decan-1-amine] | 6.00 to 7.00 |  |  | 6.00 to 7.00 | 6.00 to 7.00 |  | 
N[C@@H]1CCCC12CCN(c1ncc(Sc3cccnc3C(F)(F)F)c3nccn13)CC2 [(R)-8-(8-((2-(trifluoromethyl)pyridin-3-yl)thio)imidazo[1,2-c]pyrimidin-5-yl)-8-azaspiro[4.5]decan-1-amine] | > 7.00 |  |  | 6.00 to 7.00 | 6.00 to 7.00 |  | 
CC1C[C@@H](N)C2(CCN(c3ncc(Sc4ccnc(Cl)c4Cl)c4nccn34)CC2)C1 (stereo partly drawn) [(1R)-8-(8-((2,3-dichloropyridin-4-yl)thio)imidazo[1,2-c]pyrimidin-5-yl)-3-methyl-8-azaspiro[4.5]decan-1-amine] | > 7.00 | 8.10 | 7.47 | > 7.00 | > 7.00 | 7.55 | 
N[C@@H]1CCCC12CCN(c1ncc(Sc3ccncc3Cl)c3nncn13)CC2 [(R)-8-(8-((3-chloropyridin-4-yl)thio)-[1,2,4]triazolo[4,3-c]pyrimidin-5-yl)-8-azaspiro[4.5]decan-1-amine] | 6.00 to 7.00 | 7.00 | 6.45 | 6.00 to 7.00 | 6.00 to 7.00 | 6.49 | 
CC1C[C@@H](N)C2(CCN(c3ncc(Sc4cc(N)nc(Cl)c4Cl)c4nncn34)CC2)C1 (stereo partly drawn) [(1R)-8-(8-((6-amino-2,3-dichloropyridin-4-yl)thio)-[1,2,4]triazolo[4,3-c]pyrimidin-5-yl)-3-methyl-8-azaspiro[4.5]decan-1-amine] | > 7.00 | 8.70 | 7.33 | > 7.00 | > 7.00 | 7.77 | 
C[C@@H]1OCC2(CCN(c3ncc(Sc4cccc(Cl)c4Cl)c4nccn34)CC2)[C@@H]1N [(3S,4S)-8-(8-((2,3-dichlorophenyl)thio)imidazo[1,2-c]pyrimidin-5-yl)-3-methyl-2-oxa-8-azaspiro[4.5]decan-4-amine] | > 7.00 | 8.10 | 6.99 | 6.00 to 7.00 | > 7.00 | 7.17 | 
N[C@@H]1CC(F)(F)CC12CCN(c1ncc(Sc3cccc(Cl)c3Cl)c3nccn13)CC2 [(R)-8-(8-((2,3-dichlorophenyl)thio)imidazo[1,2-c]pyrimidin-5-yl)-3,3-difluoro-8-azaspiro[4.5]decan-1-amine] | > 7.00 |  |  | 6.00 to 7.00 | 6.00 to 7.00 |  | 
N[C@@H]1CCCC12CCN(c1ncc(Sc3cccc(Cl)c3Cl)c3nccn13)CC2 [(R)-8-(8-((2,3-dichlorophenyl)thio)imidazo[1,2-c]pyrimidin-5-yl)-8-azaspiro[4.5]decan-1-amine] | > 7.00 |  |  | 6.00 to 7.00 | 6.00 to 7.00 |  | 
Cc1nc(N)cc(Sc2cnc(N3CCC4(CC3)COC[C@H]4N)n3ccnc23)c1Cl [(S)-8-(8-((6-amino-3-chloro-2-methyl-pyridin-4-yl)thio)imidazo[1,2-c]pyrimidin-5-yl)-2-oxa-8-azaspiro[4.5]decan-4-amine] | > 7.00 | 7.47 | 6.80 | 6.00 to 7.00 | 6.00 to 7.00 | 6.47 | > 7.00
N[C@@H]1CCCC12CCN(c1ncc(Sc3ccnnc3Cl)c3nccn13)CC2 [(R)-8-(8-((3-chloropyridazin-4-yl)thio)imidazo[1,2-c]pyrimidin-5-yl)-8-azaspiro[4.5]decan-1-amine] | 6.00 to 7.00 |  |  | 6.00 to 7.00 | 6.00 to 7.00 |  | 
Cc1nccc(Sc2cnc(N3CCC4(CCC[C@H]4N)CC3)n3ccnc23)c1Cl [(R)-8-(8-((3-chloro-2-methyl-pyridin-4-yl)thio)imidazo[1,2-c]pyrimidin-5-yl)-8-azaspiro[4.5]decan-1-amine] | > 7.00 | 7.40 | 6.74 | 6.00 to 7.00 | > 7.00 | 7.24 | 
Nc1cc(Sc2cnc(N3CCC4(CCC[C@H]4N)CC3)n3ncnc23)c(Cl)c(Cl)n1 [(R)-8-(8-((6-amino-2,3-dichloropyridin-4-yl)thio)-[1,2,4]triazolo[1,5-c]pyrimidin-5-yl)-8-azaspiro[4.5]decan-1-amine] | 6.00 to 7.00 |  |  | 6.00 to 7.00 | 6.00 to 7.00 |  | 
Cc1nc(N)cc(Sc2cnc(N3CCC4(CC3)CC(F)(F)C[C@H]4N)n3ccnc23)c1Cl [(R)-8-(8-((6-amino-3-chloro-2-methyl-pyridin-4-yl)thio)imidazo[1,2-c]pyrimidin-5-yl)-3,3-difluoro-8-azaspiro[4.5]decan-1-amine] | > 7.00 | 7.59 | 7.01 | > 7.00 |  | 6.82 | 
NCC1CCN(c2ncc(Sc3cccc(Cl)c3Cl)c3nncn23)C1 (stereo not drawn) [(1-(8-((2,3-dichlorophenyl)thio)-[1,2,4]triazolo[4,3-c]pyrimidin-5-yl)pyrrolidin-3-yl)methanamine] | 6.00 to 7.00 |  |  | 5.00 to 6.00 | 5.00 to 6.00 |  | 
Nc1nccc(Sc2cnc(N3CCC4(CC3)COC[C@H]4N)n3ccnc23)c1Cl [(S)-8-(8-((2-amino-3-chloropyridin-4-yl)thio)imidazo[1,2-c]pyrimidin-5-yl)-2-oxa-8-azaspiro[4.5]decan-4-amine] | > 7.00 |  |  | 6.00 to 7.00 | 6.00 to 7.00 |  | 

Source: patent US11498930B2 (BLUERAY THERAPEUTICS (SHANGHAI) CO., LTD., priority 2018, dated 2022)
